Laboratory results reported in PMC10672221, “The Plant Defensin Ppdef1 Is a Novel Topical Treatment for Onychomycosis” (Journal of Fungi, 2023).
Positions of bridges follow the written chain, without caps; N, C: chain ends. No end group written: not given here.

Experiments:
[1] = Nail penetration assay (Franz cell nail adaptors); assay type: in vitro ADME, human; details: for average penetration per day at Days 7-10: Ppdef1 1% (six replicates), terbinafine 1% in same vehicle (four replicates); for maximum level of penetration on any one day: 10 days daily application, efinaconazole 10% as Jublia (maximum on day 8); for applied dose that penetrated the nails on all days, except for terbinafine on Days 7 and 9: efinaconazole 10%
Protocol: Nail penetration assays were conducted essentially as described by Hui et al.. Human fingernail clippings (minimum size: 6.5 mm × 6.5 mm) were hydrated by placing them on folded Kimwipe tissues soaked in 3 mL of phosphate-buffered saline (PBS, pH 7.4) for 3 h at 26 °C. After hydration, nails were placed in plastic Franz cell nail adaptors (Perme Gear, Hellerton, PA, USA) with cotton wool (20 mg ± 2 mg) pre-soaked with 100 µL of phosphate-buffered saline with Tween 0.05% (PBST, pH 7.4) placed underneath the nail. Nails were sealed into the adaptors with silicone and checked for leaks by applying 10 µL of water to the top of the nail for at least 20 min (RT). Ppdef1 drug product (10 µL; 1% Ppdef1 in 50 mM acetate buffer, pH 4.0, 20% isopropanol, 20% propylene glycol), terbinafine (1% in 50 mM acetate buffer, pH 4.0, 20% isopropanol, 20% propylene glycol), or efinaconazole (formulated as Jublia (Valeant)) was applied to the top of the nail, and nails were incubated at 26 °C for 16 h in a Petri dish. A moist Kimwipe was added to the Petri dish to maintain humidity. After 16 h, the cotton wool was removed from the underside of the nail and set aside for analysis. The top of the nail was washed to collect excess test compound that had not penetrated the nail. First, a dry cotton swab was used to collect any excess liquid on the nail. A second swab soaked in 100 µL of water was then wiped over the top of the nail. An additional dry swab was used to collect any remaining liquid. A fresh piece of cotton wool soaked in 100 µL PBST was added to the underside of the nail. The nail was incubated at 26 °C for 1 h to allow for rehydration. Additional test solution (10 µL) was applied, and the process was repeated daily for 10 days. To quantify the amount of test item that had penetrated the nail, cotton wool removed from the underside of the nail was washed twice with 500 mM CaCl2 (200 µL) and then once with 0.1% TFA (200 µL). The cotton wool was incubated with the wash solution for 10 min at 26 °C for each wash. Cotton wool washes were pooled and analysed using RP-HPLC (300SB-C8 analytical column attached to a 1200 series HPLC (Agilent, Santa Clara, CA, USA)). Ethics approval for use of the nail clippings was granted by the La Trobe University Human Ethics Committee for the collection of nail clippings (approval number: HEC18414).

[2] = system: T. rubrum growing on human nail fragments; assay: Cell killing of T. rubrum growing on nail fragments (PrestoBlue); assay type: cell-based, Trichophyton rubrum
Protocol: Human nail fragments (~2 mm × 2 mm) were sterilized in water at 99 °C for 4 h. A single nail fragment was placed into each well of a 96-well microtiter plate along with 100 µL of sterile water. T. rubrum conidia (100 µL) were added to obtain a final concentration of 1.5 × 10^5 conidia/mL. Control wells were inoculated with water only. Plates were then incubated for 96 h at 28 °C without shaking to allow T. rubrum to colonise the nail material. After the nail fragments were colonised with T. rubrum, they were treated with Ppdef1 or efinaconazole at a final concentration of 100 or 200 µg/mL. Six replicate wells were used per treatment, and two independent replicates were performed. As efinaconazole was dissolved in ethanol, all wells treated with Ppdef1 were adjusted with ethanol to a final concentration of 1% ethanol. Plates were then incubated for 20 h at 28 °C.
After the 20 h incubation, 20 µL of PrestoBlue® (Thermo Fisher, Scoresby, Victoria, Australia) was added to each well, and the mixture was transferred to a black-wall, clear-bottom microplate. […] The reaction was allowed to proceed for 24 h before fluorescence was measured in an M5e spectrophotometer (Molecular Devices, San Jose, CA, USA) using an excitation wavelength of 560 nm and an emission wavelength of 590 nm as described in the manufacturer’s instructions (Thermo Fisher, Scoresby, Victoria, Australia).

[3] = system: C. albicans cells; assay: Propidium iodide uptake in response to antifungal treatment (flow cytometry); assay type: cell-based, Candida albicans; details: 30 min; for treated cells no longer viable (PI positive): 50 µg/mL; for treated cells no longer viable (PI positive) / treated cells no longer viable / cells killed (PI positive): 30 °C, 1/2 PDB, flow cytometry; for treated cells no longer viable / cells killed (PI positive): 100 µg/mL
Protocol: A culture of C. albicans cells (OD600 = 0.3 in ½ PDB) was prepared. Aliquots of the culture (300 µL) were transferred to 1.5 mL tubes and treated with 3.125, 6.25, 12.5, 25, 50, or 100 µg/mL of Ppdef1, efinaconazole, ciclopirox, terbinafine, or tavaborole. Water or dimethyl sulfoxide (DMSO) was added to the untreated control samples. Propidium iodide (2 µL of 1 mg/mL stock) was also added to each sample, and the cells were incubated for 30 min at 30 °C before they were pelleted using centrifugation, resuspended in 300 µL of PBS and transferred to the wells of a 96-well plate. Cells were assessed for fluorescence using the PI channel on a FACS Canto 2 flow cytometer (BD). Cells with fluorescence of more than 185 rfu were considered positive for PI uptake.

[4] = systemic (oral), after a 12 week treatment; cited from earlier work
Text: These infections are hard to treat, can be painful, and have a cosmetic impact on the patient. Current topical treatments for onychomycosis require daily or weekly application for 48 weeks, and even these exhaustive treatment regimens produce low complete cure rates. Until 2014, […]® and its generic equivalents, with the active ingredient ciclopirox, were the only prescription strength topical onychom ... || Several systemic (oral) treatments have been approved for the treatment of onychomycosis. […] The FDA reported in its review of efinaconazole (Center for Drug Evaluation and Research; […] Fungicidal activity in the presence of keratin is hypothesised to correlate with the clinical efficacy for the topical onychomycosis products, ciclopirox and efinaconazole. The complete cu ...

[5] = 10 µL daily, 26 °C, RP-HPLC, average of six replicates
[6] = 10 µL daily, 26 °C, RP-HPLC, six replicates
[7] = terbinafine 1%, four replicates

| Molecule | average penetration per day at Days 7-10 ([1]; 10 µL daily, 26 °C, RP-HPLC) [%] | maximum level of penetration on any one day [1, 7] [%] | applied dose that penetrated the nails on all days, except for terbinafine on Days 7 and 9 ([1]; terbinafine 1%) | treated cells no longer viable (PI positive) [3] | cure rate [4] [%] | treated cells no longer viable / cells killed (PI positive) [3] | other results |
| --- | --- | --- | --- | --- | --- | --- | --- |
| AKVCTKPSKFFKGLCGTDGACTTACRKEGLHSGYCQLKGFLNSVCVCRKHC (disulfide 4-51, 15-35, 21-45, 25-47) [Ppdef1] | 26.1 |  |  |  |  |  | applied dose that penetrated the nail, first day ([1]; 10 µL applied daily, 26 °C, 16 h, cotton wool under nail, RP-HPLC, 1% Ppdef1 in 50 mM acetate pH 4.0, 20% isopropanol, 20% propylene glycol, average of six replicates): 13.3%; applied dose that penetrated the nail, Day 2 [1, 5]: 3.2%; applied dose that penetrated the nail, Day 3 [1, 5]: 2.0%; average penetration per day over Days 4, 5, and 6 [1, 6]: 13.1%; penetration by Day 7 [1, 6]: approximately 26%; applied dose that penetrated the nail on Days 7-10 ([1]; Ppdef1 1%): Greater than 20%; amount passed through the nail ([1]; daily application of 10 µL of a 1% solution for 10 days): more than 150 µg |
| C=C1CCN([C@H](C)[C@](O)(Cn2cncn2)c2ccc(F)cc2F)CC1 [efinaconazole] |  | 2.2 | less than 5% | no significant cell death |  |  | average penetration per day on Days 1-7, 9, and 10 ([1]; efinaconazole 10% (Jublia), four replicates): approximately 0.5%; hyphal biomass killed relative to the untreated control ([2]; 200 µg/mL, keratin as sole nutrient source, 1% ethanol, 28 °C, PrestoBlue): little impact; decrease in viable fungi ([2]; either concentration (100 or 200 µg/mL)): did not cause a significant decrease; cell death (PI uptake) ([3]; any of the tested concentrations (3.125-100 µg/mL)): did not induce a significant cell death |
| CCC(C)n1ncn(-c2ccc(N3CCN(c4ccc(OCC5COC(Cn6cncn6)(c6ccc(Cl)cc6Cl)O5)cc4)CC3)cc2)c1=O (stereo not shown) [itraconazole] |  |  |  |  | 14 |  |  |
| Cc1cc(C2CCCCC2)n(O)c(=O)c1 [ciclopirox] |  |  |  | ~ 20% |  | 58.7% |  |
| OB1OCc2cc(F)ccc21 [tavaborole] |  |  |  | no significant cell death |  | less than 25% |  |
| CN(C/C=C/C#CC(C)(C)C)Cc1cccc2ccccc12 [terbinafine] | 3.8 | 7.0 | less than 5% | no significant cell death | 38 | less than 25% | applied dose that penetrated the nails on Days 7 and 9 ([1]; terbinafine 1%): less than 10%; penetration observed on most days ([1]; terbinafine 1%, daily for 10 days, four replicates): approximately 3.0% |
